# Results from patent publication US20100137303A1, “NEW COMPOUND 255” (AstraZeneca AB, priority 2008, published 2010).
# What was measured:
# [1] = test system: Spn548; test: Bacterial susceptibility testing in liquid media, Spn548 MIC; details: Streptococcus pneumoniae, 24 h, read-out: Spn548 Mean MIC
# Description: (§1) Compounds may be tested for antimicrobial activity by susceptibility testing in liquid media. Compounds may be dissolved in dimethylsulfoxide and tested in 10 doubling dilutions in the susceptibility assays. The organisms used in the assay may be grown overnight on suitable agar media and then suspended in a liquid medium appropriate for the growth of the organism. The suspension can be a 0.5 McFarland and a further 1 in 10 dilution can be made into the same liquid medium to prepare the final organism suspension in 100 μL. Plates can be incubated under appropriate conditions at 37° C. for 24 hrs prior to reading.
# [2] = target: T1, Msm. GyrB (Mycolicibacterium smegmatis, UniProt A0QNE0); test: Msmegmatis GyrB enzyme assay (ATPase, malachite green phosphate detection); assay type: biochemical; details: read-out: Msm_GyrB IC50
# T1 construct: 15 nM Msm; GyrB, 650 μM ATP, and compound in dimethyl sulfoxide
# T1 sequence (A0QNE0 whole entry): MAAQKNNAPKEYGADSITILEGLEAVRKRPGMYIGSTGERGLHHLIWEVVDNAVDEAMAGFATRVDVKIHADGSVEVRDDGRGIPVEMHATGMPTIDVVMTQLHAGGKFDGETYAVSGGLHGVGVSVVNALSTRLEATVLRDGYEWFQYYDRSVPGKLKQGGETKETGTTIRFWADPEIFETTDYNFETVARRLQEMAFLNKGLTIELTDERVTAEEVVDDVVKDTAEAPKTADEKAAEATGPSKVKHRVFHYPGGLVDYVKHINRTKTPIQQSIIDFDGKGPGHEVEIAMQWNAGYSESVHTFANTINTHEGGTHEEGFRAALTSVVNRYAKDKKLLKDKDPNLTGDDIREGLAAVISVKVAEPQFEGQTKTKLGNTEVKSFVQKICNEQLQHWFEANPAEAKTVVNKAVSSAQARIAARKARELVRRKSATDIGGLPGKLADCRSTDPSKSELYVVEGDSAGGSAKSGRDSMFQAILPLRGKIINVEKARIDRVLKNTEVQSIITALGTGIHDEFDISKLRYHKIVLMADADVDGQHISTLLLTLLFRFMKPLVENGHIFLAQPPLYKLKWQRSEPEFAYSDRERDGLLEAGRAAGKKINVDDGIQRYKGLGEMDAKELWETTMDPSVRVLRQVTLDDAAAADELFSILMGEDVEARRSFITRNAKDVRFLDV
# Description: Compounds may be tested for inhibition of GyrB ATPase activity using an ammonium molybdate/malachite green-based phosphate detection assay (Lanzetta, P. A., L. J. Alvarez, P. S. Reinach, and O. A. Candia, 1979, 100: 95-97; Innova Biosciences malachite green detection kit). Assays can be performed in multi-well plates in 50 μl reactions containing: 50 mM HEPES buffer pH 7.7, 250 mM potassium glutamate, 200 mM potassium chloride, 2 mM magnesium chloride, 2% glycerol, 1 mM 1,4-Dithio-DL-threitol, 0.005% Brij-35, 15 nM Msm. GyrB, 650 μM ATP, and compound in dimethyl sulfoxide. Reactions can be quenched with 12.5 μl of ammonium molybdate/malachite green detection reagent (Pi color lock gold & accelerator mix; Innova Biosciences), followed by the addition of 5 μl of stabilizer (Innova Biosciences) after 5 min of incubation.
# [3] = test system: Eco-tolC; test: Bacterial susceptibility testing in liquid media, Eco-tolC MIC; details: Escherichia coli, read-out: Eco-tolC MIC
# Description: as §1
# [4] = test system: M. tuberculosis; test: Mycobacteria susceptibility testing, Microplate Alamar Blue Assay, Mtu MIC; assay type: cell-based, Mycobacterium tuberculosis (Mtu); details: Mycobacterium tuberculosis
SMILES,MIC [1] [µg/mL],IC50 [2] [nM],MIC [3] [µg/mL],MIC [4] [µg/mL]
"CCNC(=O)Nc1nc2cc(-c3ccc(F)nc3)c(OCCOC)nc2s1 [Example 48, 1-ethyl-3-[6-(6-fluoropyridin-3-yl)-5-(2-methoxyethoxy)[1,3]thiazolo[5,4-b]pyridin-2-yl]urea]",0.0625,4.51,0.125,0.707
"CCNC(=O)Nc1nc2cc(-c3cncnc3)c(OCC3CCOCC3)nc2s1 [Example 49, 1-ethyl-3-[6-pyrimidin-5-yl-5-(tetrahydro-2H-pyran-4-ylmethoxy)[1,3]thiazolo[5,4-b]pyridin-2-yl]urea]",0.0625,< 2.54,0.125,0.0625
"CCNC(=O)Nc1nc2cc(-c3cncnc3)c(OCc3cscn3)nc2s1 [Example 50, 1-ethyl-3-[6-pyrimidin-5-yl-5-(1,3-thiazol-4-ylmethoxy)[1,3]thiazolo[5,4-b]pyridin-2-yl]urea]",0.0625,< 2.54,0.25,0.25
"CCNC(=O)Nc1nc2cc(-c3cncnc3)c(OCC3CCCO3)nc2s1 (centres unmarked) [Example 51, 1-ethyl-3-[6-pyrimidin-5-yl-5-(tetrahydrofuran-2-ylmethoxy)[1,3]thiazolo[5,4-b]pyridin-2-yl]urea]",0.0625,4.87,0.125,0.25
"CCNC(=O)Nc1nc2cc(-c3cncnc3)c(NCC3CCCO3)nc2s1 (centres unmarked) [Example 52, 1-ethyl-3-{6-pyrimidin-5-yl-5-[(tetrahydrofuran-2-ylmethyl)amino][1,3]thiazolo[5,4-b]pyridin-2-yl}urea]",0.125,7.88,4,1
"CCNC(=O)Nc1nc2cc(-c3cncc(C(=O)OCC)c3)c(OCC3CCOC3)nc2s1 (centres unmarked) [Example 53, ethyl 5-{2-[(ethylcarbamoyl)amino]-5-(tetrahydrofuran-3-ylmethoxy)[1,3]thiazolo[5,4-b]pyridin-6-yl}pyridine-3-carboxylate]",0.0625,62.2,0.5,2.83
"CCNC(=O)Nc1nc2cc(-c3cccc(/C=C/C(=O)O)c3)c(OCC3CCOC3)nc2s1 (centres unmarked) [Example 55, (2E)-3-(3-{2-[(ethylcarbamoyl)amino]-5-(tetrahydrofuran-3-ylmethoxy)[1,3]thiazolo[5,4-b]pyridin-6-yl}phenyl)prop-2-enoic acid]",0.0625,35.2,2,> 8
"CCNC(=O)Nc1nc2cc(-c3cncnc3)c(OC)nc2s1 [Example 56, 1-ethyl-3-(5-methoxy-6-pyrimidin-5-yl[1,3]thiazolo[5,4-b]pyridin-2-yl)urea]",0.0625,21.6,0.5,0.707
"CCNC(=O)Nc1nc2cc(N3CCC(O)C3)c(OCC3CCOC3)nc2s1 (centres unmarked) [Example 58, 1-ethyl-3-(6-(3-hydroxypyrrolidin-1-yl)-5-((tetrahydrofuran-3-yl)methoxy)thiazolo[5,4-b]pyridin-2-yl)urea]",4,2110,> 32,> 8
"CCNC(=O)Nc1nc2cc(-c3ccc(F)nc3)c(OCC3CCOCC3)nc2s1 [Example 59, 1-ethyl-3-[6-(6-fluoropyridin-3-yl)-5-(tetrahydro-2H-pyran-4-ylmethoxy)[1,3]thiazolo[5,4-b]pyridin-2-yl]urea]",0.125,< 4.83,1,0.5
"CCNC(=O)Nc1nc2cc(-c3cncc(F)c3)c(OCC3CCOCC3)nc2s1 [Example 60, 1-ethyl-3-[6-(5-fluoropyridin-3-yl)-5-(tetrahydro-2H-pyran-4-ylmethoxy)[1,3]thiazolo[5,4-b]pyridin-2-yl]urea]",0.125,< 2.54,1,0.354
"CCNC(=O)Nc1nc2cc(-c3cccnc3OC)c(OCC3CCOCC3)nc2s1 [Example 61, 1-ethyl-3-[6-(2-methoxypyridin-3-yl)-5-(tetrahydro-2H-pyran-4-ylmethoxy)[1,3]thiazolo[5,4-b]pyridin-2-yl]urea]",0.25,4.74,16,> 4
"CCNC(=O)Nc1nc2cc(-c3c(C)noc3C)c(OCC3CCOCC3)nc2s1 [Example 62, 1-[6-(3,5-dimethylisoxazol-4-yl)-5-(tetrahydro-2H-pyran-4-ylmethoxy)[1,3]thiazolo[5,4-b]pyridin-2-yl]-3-ethylurea]",8,727,64,> 4
"CCNC(=O)Nc1nc2cc(-c3cncnc3)c(OC[C@H]3CCCO3)nc2s1 [Example 63, 1-ethyl-3-{6-pyrimidin-5-yl-5-[(2R)-tetrahydrofuran-2-ylmethoxy][1,3]thiazolo[5,4-b]pyridin-2-yl}urea]",0.125,2.6,1,0.25
"CCNC(=O)Nc1nc2cc(-c3cncnc3)c(OC3CCOC3)nc2s1 (centres unmarked) [Example 64, 1-ethyl-3-[6-pyrimidin-5-yl-5-(tetrahydrofuran-3-yloxy)[1,3]thiazolo[5,4-b]pyridin-2-yl]urea]",0.125,< 2.54,0.5,0.125
"CCNC(=O)Nc1nc2cc(-c3cncnc3)c(N[C@@H](C)C(=O)OCC)nc2s1 [Example 65, Ethyl N-{2-[(ethylcarbamoyl)amino]-6-pyrimidin-5-yl[1,3]thiazolo[5,4-b]pyridin-5-yl}-L-alaninate]",0.125,< 2.54,4,0.125
"CCNC(=O)Nc1nc2cc(-c3cnc(C#N)nc3)c(OCC3CCOC3)nc2s1 (centres unmarked) [Example 66, 1-[6-(2-cyanopyrimidin-5-yl)-5-(tetrahydrofuran-3-ylmethoxy)[1,3]thiazolo[5,4-b]pyridin-2-yl]-3-ethylurea]",0.125,< 2.54,0.5,< 0.043
"CCNC(=O)Nc1nc2cc(-c3cncnc3)c(N[C@@H](C)C(=O)NC)nc2s1 [Example 67, (2S)-2-[[2-(ethylcarbamoylamino)-6-pyrimidin-5-yl-thiazolo[4,5-e]pyridin-5-yl]amino]-N-methyl-propanamide]",2,15.9,> 64,1.41
"CCNC(=O)Nc1nc2cc(-c3ccc(C(F)(F)F)nc3)c(OCC3CCOC3)nc2s1 (centres unmarked) [Example 70, 1-ethyl-3-{5-(tetrahydrofuran-3-ylmethoxy)-6-[6-(trifluoromethyl)pyridin-3-yl][1,3]thiazolo[5,4-b]pyridin-2-yl}urea]",0.0625,6.92,0.25,4.76
"CCNC(=O)Nc1nc2cc(-c3ccc(F)nc3)c(OC3C=CCCC3)nc2s1 (centres unmarked) [Example 72, 1-[5-(cyclohex-2-en-1-yloxy)-6-(6-fluoropyridin-3-yl)[1,3]thiazolo[5,4-b]pyridin-2-yl]-3-ethylurea]",0.0625,29.1,0.25,2
